Test results reported in patent US7323260B2, “Lubricant, recording medium and carboxylic acid compound” (Sony Corporation, priority 2003, dated 2008).

Assay: Evaluation of solubility in solvent
Format: physicochemical
Method: Solubility of lubricants which were used in Examples 1 to 11 and Comparative Example 3 in each of ethanol, acetone and toluene was evaluated. Evaluation results of solubility of the lubricants are shown in Table 10 by evaluation criteria as defined as follows: […]
Solubility of lubricants which were used in Examples 21 to 37 in each of ethanol, acetone and toluene was evaluated. Evaluation results of solubility of lubricants are shown in Table 19 by evaluation criteria as defined as follows: […]

With “C18H37CH(COOC12H25)(CH2)2COOCH2CF2(OCF2)p(OCF(CF3)CF2)qOCF3 [Comparative Example 3]” the “solubility in a hydrocarbon type solvent (in words)” value was “hardly dissolved”.
